Entries after “also recorded” stand apart in the source; their conditions may differ.
Columns and labels:
[1] = biological target: T1, serotonin transporter (SERT) (Homo sapiens, UniProt P31645); test: cell-based
[2] = biological target: norepinephrine transporter (NET) (Homo sapiens, UniProt P23975); settings: 10^−7 M to 10^−3 M, 30 minutes, HEK-hNET cells
[3] = biological target: T1, serotonin transporter (SERT)
[4] = test system: NET protein expression; test: Immunoblotting of NET protein expression in HEK-hNET cells; format: cell-based, human; settings: 10^−6 M, 24 hours

T1 sequence (P31645 whole entry): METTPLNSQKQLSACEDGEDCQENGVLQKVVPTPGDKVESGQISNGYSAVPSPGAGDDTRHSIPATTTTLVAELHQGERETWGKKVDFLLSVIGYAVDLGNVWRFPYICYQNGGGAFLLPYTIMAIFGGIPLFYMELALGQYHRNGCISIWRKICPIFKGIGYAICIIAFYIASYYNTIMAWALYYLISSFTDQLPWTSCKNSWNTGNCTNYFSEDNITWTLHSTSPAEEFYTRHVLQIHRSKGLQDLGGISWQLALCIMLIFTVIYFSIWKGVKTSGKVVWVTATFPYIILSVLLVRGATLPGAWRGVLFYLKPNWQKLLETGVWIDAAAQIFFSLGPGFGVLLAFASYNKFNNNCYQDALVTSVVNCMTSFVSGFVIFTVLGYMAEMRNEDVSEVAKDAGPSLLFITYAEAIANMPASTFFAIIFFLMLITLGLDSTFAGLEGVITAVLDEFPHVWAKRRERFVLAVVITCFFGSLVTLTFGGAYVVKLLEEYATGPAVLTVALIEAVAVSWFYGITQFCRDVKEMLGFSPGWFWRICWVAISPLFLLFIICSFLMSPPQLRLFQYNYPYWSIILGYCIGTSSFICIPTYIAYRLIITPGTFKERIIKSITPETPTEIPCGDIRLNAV
Chain of norepinephrine transporter (NET) (P23975 whole entry): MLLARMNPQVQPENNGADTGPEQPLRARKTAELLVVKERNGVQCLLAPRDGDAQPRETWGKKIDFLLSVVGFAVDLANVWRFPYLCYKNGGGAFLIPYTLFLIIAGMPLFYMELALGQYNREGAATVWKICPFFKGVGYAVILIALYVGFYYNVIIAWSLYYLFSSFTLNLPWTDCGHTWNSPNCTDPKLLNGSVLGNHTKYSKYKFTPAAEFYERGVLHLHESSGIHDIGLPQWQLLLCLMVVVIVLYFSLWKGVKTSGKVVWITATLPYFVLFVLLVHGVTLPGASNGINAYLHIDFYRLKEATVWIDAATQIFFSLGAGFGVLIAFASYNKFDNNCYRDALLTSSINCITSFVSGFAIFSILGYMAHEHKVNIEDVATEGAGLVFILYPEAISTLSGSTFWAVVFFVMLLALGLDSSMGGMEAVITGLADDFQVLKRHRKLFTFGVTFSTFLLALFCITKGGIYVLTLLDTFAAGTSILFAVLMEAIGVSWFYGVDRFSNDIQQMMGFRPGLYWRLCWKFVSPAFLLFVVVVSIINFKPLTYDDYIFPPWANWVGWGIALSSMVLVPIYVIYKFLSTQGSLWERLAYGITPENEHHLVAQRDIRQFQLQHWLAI

CCCC(C)C1(CC)C(=O)NC(=S)NC1=O (stereo not shown) [Thiopental, thiopental]
EC50 [1]: > 50 mM
Effect on NET function ([3H]-NE uptake) [2]: failed to have any effect; also recorded: no effect; also recorded: No evidence of inhibition
Effect on SERT function ([3H]-5-HT uptake) [3]: failed to have any effect; also recorded: no effect

CNCCCN1c2ccccc2CCc2ccccc21 [desipramine]
Change in NET protein expression in response to chronic desipramine treatment [4]: no changes

Reference: paper PMC2605271 (Journal of clinical neuroscience : official journal of the …, 2008)
